The values that follow come from US6939863B2, “Prevention of atherosclerosis and restenosis” (priority 2002, dated 2005).

The conditions of assay [1]: summary table; cited from earlier work.
In a further assay the test system is collagen expression. Particulars: summary table; cited from earlier work.
For a further assay, the system named is endothelial cells. As to conditions: summary table; cited from earlier work. Further: key: '+' represents the ability; a '−' represents the inability of conversion from a non-contracile phenotype to a contractile phenotype in an in vitro condition; A '↓' represents decrease; a '?' represents no data is available.
In a further assay the test system is smooth muscle cells. As to conditions: conversion from non-contractile to contractile phenotype in vitro; cited from earlier work.
The conditions of assay [2]: summary table; cited from earlier work. The source holds these as a separate data set.
The subject of assay [3] is restenosis. Particulars: summary table; cited from earlier work.
For assay [4], the system named is restenosis. As to conditions: summary table; cited from earlier work. This is another data set of the same source.
Assay [5] has as its system restenosis. As to conditions: summary table; cited from earlier work. The source holds these as a separate data set.
The subject of assay [6] is rat vascular smooth muscle cells. Nature of the assay: Vascular smooth muscle cell proliferation (cell number). The format is cell-based. As to conditions: concentration-dependent; PTU 0.05-5 millimolar, methimazole 0.01-1 millimolar. The protocol:
(§1) Rat vascular smooth muscle cells (VSMCs) (passages 5-10) were prepared from Sprague-Dawley rats and cultured in Dulbecco's modified Eagle's medium (DMEM) supplemented with 10% fetal bovine serum (FBS) as previously described (Kirschenlohr et al, in “Human Cell Culture Protocols”, New Jersey, Humana Press Inc, 1996, pp. 318-335). Human endothelial cells from umbilical veins were prepared as described (Morgan, in “Human Cell Culture Protocols”, New Jersey, Humana Press Inc, 1996, pp. 101-152)
(§2) Rat vascular smooth muscle cells and human endothelial cells were plated at a density of 10,000 cells per square centimeter in 24-well plates. After 24 hours, cells at 70-80% confluency were treated with propylthiouracil dissolved in 100% dimethylsulfoxide (DMSO) at final concentrations of from 0.05 millimolar to 15 millimolar, or with methimazole (Sigma, St. Louis, Mo.) dissolved in water at the concentrations of from 0.01 millimolar to 1 millimolar for 24-72 hours. Cell numbers were visually counted using a hemocytometer. For the thymidine incorporation study, cells were deprived of serum for 36 hours and labeled with [methyl-^3H]thymidine at […] per milliliter for 12-24 hours after synchronization. Thymidine incorporation was then measured (Newby and George, 1996, Curr. Opin. Cardiol., 11:547). Effects of propylthiouracil and methimazole on the number of vascular smooth muscle cells and human endothelial cells and thymidine incorporation by vascular smooth muscle cells were each expressed as a percentage of the number and thymidine incorporation of control cells maintained in medium containing 0.1% DMSO as vehicle.

The test system is the same in assay [7]. The assay can be described thus: [methyl-3H]thymidine incorporation into VSMCs. As to conditions: concentration-dependent. The class given is cell-based. As to the method:
as §1, §2
Wherever Anti-coagulation is given: key: '+' represents the ability; a '−' represents the inability of conversion from a non-contracile phenotype to a contractile phenotype in an in vitro condition; A '↓' represents decrease; a '?' represents no data is available.
Wherever Anti-inflammation is given: key: '+' represents the ability; a '−' represents the inability of conversion from a non-contracile phenotype to a contractile phenotype in an in vitro condition; A '↓' represents decrease; a '?' represents no data is available.
Wherever Phenotype change is given: key: '+' represents the ability; a '−' represents the inability of conversion from a non-contracile phenotype to a contractile phenotype in an in vitro condition; A '↓' represents decrease; a '?' represents no data is available.

As to `CC1=C(/C=C/C(C)=C/C=C/C(C)=C/C(=O)O)C(C)(C)CCC1` [All-trans retinoic acid], in [1], the Anti-coagulation entry was “−”. In the assay on collagen expression, the Collagen expression result is recorded as “↑”. In addition, in the assay on endothelial cells, the Endothelial cellular function result is on record as “+”. Further, in the assay on smooth muscle cells, the Phenotype change result is listed as “+”. Besides, in [2], the Anti-inflammation result is recorded as “−”. Moreover, the “Effect on animal models of restenosis, Rat” value (“Effect on animal models … Rat” for short) in the assay with restenosis [3] was “+”.

Consider `CC(=O)O[C@H]1C(=O)[C@@]2(C)[C@H]([C@H](OC(=O)c3ccccc3)[C@]3(O)C[C@H](OC(=O)[C@H](O)[C@@H](NC(=O)c4ccccc4)c4ccccc4)C(C)=C1C3(C)C)[C@]1(OC(C)=O)CO[C@@H]1C[C@@H]2O` [Paclitaxel], for which, in the assay with restenosis [4], the “Effect on animal models of restenosis, Pig” value is “+”. The “Effect on restenosis, Human” value with restenosis [5] is given as “+”. In addition, the Endothelial cellular function result in the assay on endothelial cells was “−”. Further, the “Effect on animal models … Rat” value with restenosis [3] is “+”.

Regarding `Cn1cc[nH]c1=S` [methimazole], in assay [6], the “Inhibition of growth/proliferation of VSMCs” value is given as “but not methimazole (MMI), significantly inhibited”. For the same compound, the “Inhibition of thymidine incorporation into VSMCs” value in assay [7] is listed as “but not methimazole (MMI), significantly inhibited”.

Heparin: the Anti-coagulation result in assay [1] is given as “+”. In addition, the “Effect on animal models of restenosis, Pig” value in the assay with restenosis [4] is “+”. Also, in the assay with restenosis [5], the “Effect on restenosis, Human” value is listed as “−”. Also, the Endothelial cellular function entry with endothelial cells is on record as “−”. Also, the Phenotype change entry in the assay with smooth muscle cells was “−”. The Anti-inflammation entry in assay [2] is given as “−”. The “Effect on animal models … Rat” value in the assay with restenosis [3] was “+”.
